In PMC11134608, “UBR5 forms ligand-dependent complexes on chromatin to regulate nuclear hormone receptor stability” (Molecular cell, 2023):

How the values were obtained:
[1] = tested on: RARA and RXRA protein levels in NB4 cells; assay: Whole-proteome mass spectrometry of NB4 cells; assay type: cell-based, human; conditions: ATRA 24 h, n = 3 per condition
Description: Cells were lysed by addition of lysis buffer (8 M Urea, 50 mM NaCl, 50 mM 4-(2-hydroxyethyl)-1-piperazineethanesulfonic acid (EPPS) pH 8.5, Protease and Phosphatase inhibitors) and homogenization by bead beating (BioSpec) for three repeats of 30 seconds at 2400. Bradford assay was used to determine the final protein concentration in the clarified cell lysate. […] Desalted peptides were dried in a vacuum-centrifuged and reconstituted in 0.1% formic acid for LC-MS analysis.
Data were collected using a TimsTOF Pro2 (Bruker Daltonics, Bremen, Germany) coupled to a nanoElute LC pump (Bruker Daltonics, Bremen, Germany) via a CaptiveSpray nano-electrospray source.
The ddaPASEF parameters included: 100% duty cycle using accumulation and ramp times of 50 ms each, 1 TIMS-MS scan and 10 PASEF ramps per acquisition cycle. […] The quadrupole isolation width was set to 2 m/z for m/z <700 and 3 m/z for m/z >800, with the m/z between 700–800 m/z being interpolated linearly. […] To perform diaPASEF, the precursor distribution in the DDA m/z-ion mobility plane was used to design an acquisition scheme for DIA data collection which included two windows in each 50 ms diaPASEF scan. […]

RARA and PML-RARA = assay: Western blotting of RARA / PML-RARA degradation in NB4 cells; assay type: cell-based, human
Description: Membranes were blocked for 30 minutes to 1 hour at room temperature in Odyssey Blocking Buffer/PBS (LI-COR Biosciences), and incubated with primary antibodies at 4 °C overnight. Stained membranes were washed three times in Tris-buffered saline with Tween 20 (TBS-T) and incubated for 1 hour at room temperature with secondary IRDye-conjugated antibodies (LI-COR Biosciences). Membranes were washed three times in TBS-T before imaging (Odyssey Imaging System, LI-COR Biosciences).

NB4 cells = assay: NB4 viability (relative cell counts); assay type: cell-based, human; conditions: shUBR5 vs shCTRL, n = 4
Description: (D) Western blotting of NB4 cells transduced with shRNAs against luciferase (shCTRL) or UBR5 treated with or without ATRA. (E) Viability by relative cell counts of NB4 cells transduced with control or UBR5 shRNAs (two shRNAs per condition, combined) following treatment with 1 μM ATRA for 24 h. (n = 4, two-sided t test). […] (NS, not significant, *p < 0.05, **p < 0.005, ***p < 0.0005, ****p < 0.00005, error bars represent SEM.)
All flow cytometry-based assays (degradation and viability assays) were run in triplicate (n=3) unless otherwise specified where n represents a distinct flow cytometric specimen (a well or tube containing ~100,000 cells). P-values were calculated using GraphPad Prism two-sided t-test and are centered around the mean and error bars represent the SEM unless otherwise specified.
K. NB4 cell viability following
transduction of shRNAs againstluciferase or UBR5 and ATRA treatment for 3 days.Data from two shRNAs are combined.(n=4, two sided t-test)NS,not significant, *p < 0.05, **p <0.005, ***p<

UBR5-RARA = assay: In vitro FLAG-UBR5 pull-down of His-tagged RARA; assay type: binding, human; conditions: 50 μM ligand, anti-His western, 25 mM HEPES pH 7.4, 125 mM NaCl, 0.05% TWEEN-20
Description: 12 μL of FLAG M2 slurry were equilibrated with binding buffer (25 mM HEPES pH 7.4, 125 mM NaCl, 0.05% TWEEN-20). The resin was pelleted and excess buffer removed. 60 μL of fresh binding buffer was re-added, followed by addition of 15 pmol (2.5 μL ofa6 μM solution) of purified FLAG-UBR5 protein and incubated on a rotating wheel at 4°C for 60–90 minutes. The resin was pelleted, excess buffer removed, and 150 μL fresh binding buffer (supplemented with 50 μM ligand of interest or DMSO) added, followed by 150 pmol protein (binding partner protein of interest) and incubated for another 60 minutes. The resin was pelleted, excess buffer removed and washed with 400 μL of binding buffer (supplemented with ligand of interest or DMSO), and this process was repeated three times. The resin was pelleted, excess buffer removed and 45 μL of binding buffer supplemented with 1 mg/mL 3xFLAG peptide was added to elute proteins over 30 minutes on a rotating wheel at room temperature. The resin was pelleted, and 40 μL of the supernatant was collected and mixed with 12 μL of 5xSDS gel loading buffer. 6 μL of these samples were applied to SDS-PAGE on a 4–20% gradient gel (Biorad). The gel was transferred to a nitrocellulose membrane using the Trans-Blot Turbo Transfer System (Biorad). Following blocking with 5% skim milk solution in TBST, primary antibodies targeting the NR proteins were added in TBST and incubated overnight at 4 °C. The following day, membranes were washed thrice with TBST buffer and incubated for 45 minutes with fluorescent secondary antibody (Invitrogen A11357), followed by three more washes with TBST. Imaging was performed on a Licor Odyssey system, scanned at 800 nm.

UBR5-RARA/RXRA [2] = assay: In vitro FLAG-UBR5 pull-down of His-tagged RARA/RXRA heterodimer; assay type: binding, human; conditions: 50 μM ATRA, mutant proteins
Description: The resin was pelleted and excess buffer removed. 60 μL of fresh binding buffer was re-added, followed by addition of 15 pmol (2.5 μL ofa6 μM solution) of purified FLAG-UBR5 protein and incubated on a rotating wheel at 4°C for 60–90 minutes. The resin was pelleted, excess buffer removed, and 150 μL fresh binding buffer (supplemented with 50 μM ligand of interest or DMSO) added, followed by 150 pmol protein (binding partner protein of interest) and incubated for another 60 minutes. The resin was pelleted, excess buffer removed and washed with 400 μL of binding buffer (supplemented with ligand of interest or DMSO), and this process was repeated three times. The resin was pelleted, excess buffer removed and 45 μL of binding buffer supplemented with 1 mg/mL 3xFLAG peptide was added to elute proteins over 30 minutes on a rotating wheel at room temperature. The resin was pelleted, and 40 μL of the supernatant was collected and mixed with 12 μL of 5xSDS gel loading buffer. 6 μL of these samples were applied to SDS-PAGE on a 4–20% gradient gel (Biorad). The gel was transferred to a nitrocellulose membrane using the Trans-Blot Turbo Transfer System (Biorad). Following blocking with 5% skim milk solution in TBST, primary antibodies targeting the NR proteins were added in TBST and incubated overnight at 4 °C. […]

RARA reporter = RARA reporter degradation (GFP/mCherry); assay type: cell-based, human
Description: (§1) Reporter cell lines were seeded in triplicate at a density of 1 million cells/ml in 100 μl per well in a 96 well plate and measured once. Ligand was added by Digital Dispenser (Tecan), and incubated at 37°C for the appropriate time before reading by flow cytometry. Cells were analyzed for GFP vs mCherry expression. GFP expression was normalized to mCherry signal and ligand treatments were compared to DMSO controls.

PML-RARA-GFP reporter = PML-RARA-GFP reporter degradation; assay type: cell-based, human; conditions: equivalent single-residue glutamate substitutions
Description: as §1

[3] = tested on: RARA complexes (NCOR, NCOA, UBR5); assay: RARA-GFP immunoprecipitation (IP-MS and IP-western); assay type: cell-based, human
Description: To examine the temporal dynamics of this competition in cells, we performed sequential RARA immunoprecipitation/mass spectrometry (IP/MS) in the presence of MG132 at 0, 4, and 16 h following ATRA treatment.
Reporter cells (up to 100 million) were treated with ligand (ATRA, dexamethasone) and allowed to incubate for different time points. […] Lysates were incubated with GFP-Trap Magnetic Agarose beads (ChromoTek, GTMA-20) overnight at 4°C on a rotator. Beads were magnetically removed and washed three times with Pierce IP Lysis Buffer with ligand added before boiling in 1x NuPAGE LDS Sample Buffer (ThermoFischer, NP0007).
After the washing step, samples were eluted using Glycine-HCl buffer (0.2 M, pH 2.4) and rebuffered to pH 8.0. The IP eluates were reduced with 10 mM TCEP for 30 min at room temperature, and then alkylated with 15 mM iodoacetamide for 45 min at room temperature in the dark. Alkylation was quenched by the addition of 10 mM DTT. Proteins were isolated by methanol-chloroform precipitation. The protein pellets were dried and then resuspended in 50 μL 200 mM EPPS pH 8.0. The resuspended protein samples were digested with 2 μg LysC overnight at room temperature followed by the addition of 0.5 μg Trypsin for 6 h at 37°C. Protein digests were dried, resuspended in 100 μL 1% formic acid, and desalted using 10-layer C18 stage-tips before being analyzed by LC-MS.

[4] = tested on: RARA and UBR5 on chromatin in NB4 cells; assay: ChIP-seq of RARA and UBR5 in NB4 cells; assay type: cell-based, human; conditions: NB4, ATRA 8 and 24 h vs DMSO
Description: Cell lines were expanded (up to 50 million), treated with ligand, and incubated at 37 °C. Cells were pelleted by centrifugation for 5 minutes, washed twice with cold PBS, and resuspended, in 5 ml of room temperature PBS. 20 μl of 0.5M Disuccinimidyl glutarate (DSG) (ThermoFisher), was added and incubated for 30 minutes at room temperature. Cells were pelleted by centrifugation and resuspended in 8.325 ml of PBS and 8.325 ml of 2% formaldehyde and incubated for 30 minutes at room temperature. Cross-linking was quenched by the addition of 1665 μl of 1 M Tris-HCl pH 8.0 and 832.5 μl of 2.5 M glycine. Cells were pelleted and washed twice with PBS. Cross-linked cells were resuspended in LB1 Buffer (50mM HEPES-KOH, pH7.5, 140mM NaCl, 1mM EDTA, 10% Glycerol, 0.5% NP-40, 0.25% Triton X-100 in distilled water) and rotated for 10 minutes at 4C. Cells were pelleted and resuspended in LB2 (10mM Tris-HCl, pH 8.0, 200mM NaCl, 1mM EDTA, 0.5mM EGTA in distilled water) and rotated for 10 minutes at 4C. Cells were pelleted and resuspended in LB3 (10mM Tris-HCL, pH 8.0, 100mM NaCl, 1mM EDTA, 0.5mM EGTA, 0.1% Na-deoxycholate, 0.5% Na-Lauroylsarcosine, 1% Triton X-100, in distilled water) sonicated (Covaris, E220). […] Fragment length and concentrations were assessed using TapeStation (Agilent) and Qubit (ThermoFisher), and libraries were sequenced on an Illumina NextSeq 550 sequencer. […]

[5] = tested on: ATRA-induced gene expression in NB4 cells; assay: RNA sequencing of NB4 cells; assay type: cell-based, human; conditions: NB4, ATRA 0, 8, 24, 48 h
Description: Cell lines were expanded, treated with ligand, and incubated at 37C. Cells were pelleted by centrifugation for 5 minutes, washed with cold PBS, and RNA was isolated by RNeasy kit (Qiagen) per manufacturer’s instructions. RNA was sent to Novogene for library preparation and sequencing, or prepared for sequencing (NEBNext, New England Biolabs) and sequenced on an Illumina NextSeq 550 sequencer.
Paired-end reads were aligned to the hg38.p13[81],[82] reference genome with the STAR[83] (v5.2.7b) aligner as part of the RSEM[99] command line tool. Gene transcript abundance was further quantified from aligned fragments using RSEM to generate a gene-by-sample matrix of expected counts. Differential expression was tested, as with the ChIP-seq data, using the DESeq[88],[93]2 and ashr[94] pipeline, this time calculating sample-specific scale factor offset using the method of median-ratio as implemented in the R package EBSeq[100] (v1.36.0). For plotting in heatmaps, genes were selected based on ChIP-seq peak annotation and subset.

UBR5-RARA/RXRA [6] = assay: RARE dsDNA incorporation into UBR5-RARA/RXRA complex; assay type: binding, human
Description: A.Western blot (anti-His)showingin vitroFLAG-UBR5 pulldownofpurified His-tagged RARA/RXRA heterodimer, showing thata fluorescein-labelled 24-merdsDNAcontaining a DR5 Retinoic Acid
Immediately before preparing samples for SDS-PAGE, fluorescence
counts were measured at 488 nm to assessdsDNAincorporation. Fluorescence counts were normalized to the –dsDNA, DMSO condition as abaseline.

PML-RARA = tested on: PML-RARA; parameters: method as in PMID 10611294, PMID 20378816; conditions: ATRA targets RARA, ATO targets PML, ref [6],[11]; cited from earlier work

CC1=C(/C=C/C(C)=C/C=C/C(C)=C/C(=O)O)C(C)(C)CCC1 [ATRA, all-trans-retinoic acid]
protein levels of RARA and RXRA [1]: significantly and selectively decreased
RARA and PML-RARA degradation, proteasome / neddylation dependence (RARA and PML-RARA; 10 µM ATRA with MG132 or MLN4924): dependent on the proteasome, but not neddylation
effect of UBR5 knockdown on PML-RARA degradation (RARA and PML-RARA; UBR5 shRNA): prevented ATRA-induced degradation of PML-RARA in NB4 cells
effect of UBR5 knockdown on RARA degradation (RARA and PML-RARA; UBR5 shRNA vs control shRNA): rescued ATRA-induced RARA degradation
ATRA sensitivity upon UBR5 knockdown (NB4 cells): decreased ATRA sensitivity in NB4 cells
binding of RARA to UBR5 (UBR5-RARA): robustly induced binding of RARA to UBR5
agonist-induced binding of RARA V240E / RXRA V280E to UBR5 (UBR5-RARA/RXRA [2]): abolished agonist-induced binding to UBR5 in vitro
requirement of UBR5 HECT domain for RARA reporter degradation (RARA reporter; HEK293, CRISPR-edited UBR5 deficient of HECT domain, n = 3): necessary for ATRA-induced RARA reporter degradation
degradation of RARA reporter, I254 / I258 glutamate mutants (RARA reporter; I254 and I258 mutations, n = 3): significantly reduced ATRA-induced degradation
RARA LBD reporter degradation (RARA reporter; RARA LBD only, ATRA): still mediated ATRA-induced reporter degradation
degradation of RARA reporter, V240 glutamate mutant (RARA reporter; V240 single mutation, n = 3): abolished ATRA-induced degradation
degradation of PML-RARA-GFP reporter, cleft mutants (PML-RARA-GFP reporter): blocked ATRA-induced degradation of the PML-RARA-GFP reporter in cells
RARA-associated NCOA1 and UBR5 by IP-western ([3]; U937 RARA-GFP, 10 µM ATRA / MG132, 0-24 h): initial NCOA1 binding to RARA after 4 h of ATRA treatment, diminishing NCOA1 binding from 4 to 16 h, and increased binding of UBR5 at 16 and 24 h
RARA-associated UBR5 by IP/MS ([3]; with MG132, 0, 4, 16 h ATRA): enrichment of UBR5 peptides at 16 h post ATRA treatment
RARA ChIP-seq peaks [4]: lost following ATRA treatment
UBR5 ChIP-seq binding at RARA loci [4]: binding was strengthened following ATRA treatment
effect of UBR5 knockdown on ATRA-induced transcription [5]: strongly decreased transcriptional activation
DNA incorporation into UBR5-RARA/RXRA complex (UBR5-RARA/RXRA [6]): DNA was readily incorporated into a UBR5-RARA/RXRA complex
PML-RARA degradation (literature) (PML-RARA): PML-RARA is degraded therapeutically
